# Source: PubChem BioAssay (NCI)
#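 Grown in 96-well plates, cells were treated for 48 hours with each compound at five concentrations. Insufficient inhibition: endpoint recorded as highest concentration tested. At the TGI there is no net growth.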
# What was measured:
# Assay in all cases: growth of human tumour cells (NCI), 48 h
# [1] = system: MDA-MB-435
# [2] = system: SK-MEL-2 melanoma
# [3] = system: SNB-75 CNS
# [4] = system: SF-268 CNS
# [5] = system: SF-295 CNS
# [6] = system: SR leukemia
# [7] = system: UACC-62 melanoma
# [8] = system: MCF7 breast
# [9] = system: NCI-H522 lung
# [10] = system: SK-MEL-5 melanoma
# [11] = system: 786-0 renal
SMILES,TGI [1],TGI [2],TGI [3],TGI [4],TGI [5],TGI [6],TGI [7],TGI [8],TGI [9],TGI [10],TGI [11]
CCOP(=O)(OCC)/C(F)=C/c1ccc(F)cc1,> 100 µM,> 100 µM,> 100 µM,> 100 µM,> 100 µM,> 100 µM,> 100 µM,> 100 µM,> 100 µM,> 100 µM,> 100 µM
CC(=O)O[C@H]1CC[C@@]2(C)C(=CC[C@@H]3[C@@H]2CC[C@]2(C)C(=O)/C(=C\c4ccccc4)C[C@@H]32)C1,> 100 µM,> 100 µM,> 100 µM,> 100 µM,> 100 µM,> 100 µM,> 100 µM,> 100 µM,> 100 µM,> 100 µM,> 100 µM
COC1=C(OC)C(=O)c2cc(C)c(=O)c(C)cc2C1=O,3.49 µM,36.8 µM,33 µM,37.1 µM,48.5 µM,> 22.6 µM,27.7 µM,36.4 µM,32.2 µM,29.3 µM,24.5 µM
O=C1C(CN2CCCC2)CCC1CN1CCCC1 (stereo not given),32.9 µM,47.1 µM,33.4 µM,46.2 µM,> 100 µM,> 100 µM,32.9 µM,39.3 µM,3.52 µM,31.9 µM,29.8 µM
Cn1c2ccccc2n2c3ccccc3c3nnc(N)c-3c12,> 100 µM,> 79.5 µM,11.8 µM,3.68 µM,> 100 µM,> 100 µM,> 100 µM,> 74.7 µM,26.2 µM,> 100 µM,49.8 µM
N#Cc1nc(CCC(C(=O)O)N2C(=O)c3ccccc3C2=O)oc1N (stereo not given),> 100 µM,> 100 µM,> 100 µM,> 100 µM,> 100 µM,> 100 µM,> 100 µM,> 100 µM,> 100 µM,> 100 µM,> 100 µM
O=c1cc(O)c1=O,> 100 µM,> 100 µM,> 100 µM,> 100 µM,> 100 µM,> 100 µM,> 100 µM,> 100 µM,> 100 µM,> 100 µM,–
C[C@@H](NC(=O)Nc1cccc(C(=O)Nc2cc(C(C)(C)C)ccc2C(=O)O)n1)c1ccccc1,> 100 µM,39 µM,> 100 µM,> 100 µM,76.2 µM,> 100 µM,50.9 µM,47.9 µM,> 100 µM,> 100 µM,> 100 µM
C[C@H]1CC(=O)C[C@@H]2CC[C@@H]3[C@H](CC[C@]4(C)C(OC(=O)c5cccc6c(=O)c7ccccc7[nH]c56)CC[C@@H]34)[C@]21C (stereo not given in full),> 100 µM,> 100 µM,92.8 µM,> 100 µM,> 100 µM,21.6 µM,88.3 µM,> 100 µM,72.8 µM,40.3 µM,> 100 µM
CC(=O)OCC1OC(NC(=S)Nn2c(-c3ccccc3)nc3ccccc3c2=O)C(OC(C)=O)C(OC(C)=O)C1OC(C)=O (stereo not given),> 100 µM,68.3 µM,> 100 µM,> 100 µM,> 100 µM,88.7 µM,> 100 µM,> 100 µM,> 100 µM,> 100 µM,> 100 µM
CCOC(=O)c1sc(N)nc1N1CCCC1,> 100 µM,> 100 µM,> 100 µM,–,> 100 µM,> 100 µM,> 100 µM,> 100 µM,> 100 µM,> 100 µM,> 100 µM
NC(Cc1c2ccccc2cc2ccccc12)C(=O)O (stereo not given),> 100 µM,> 100 µM,94.9 µM,> 100 µM,> 100 µM,> 100 µM,> 100 µM,> 100 µM,> 100 µM,> 100 µM,> 100 µM
CCOC(=O)c1cn2c(n1)sc1cc([N+](=O)[O-])ccc12,> 100 µM,> 100 µM,> 100 µM,> 100 µM,> 100 µM,> 100 µM,> 100 µM,> 100 µM,> 100 µM,> 100 µM,> 100 µM
COc1nc2c(c(=O)[nH]1)N=C(c1ccc([N+](=O)[O-])cc1)CC(c1ccccc1)N2 (stereo not given),> 100 µM,> 100 µM,> 100 µM,–,> 100 µM,> 100 µM,> 100 µM,> 100 µM,> 100 µM,> 100 µM,> 100 µM
C(#C[C@@]12CCC[C@@H]1NCO2)c1ccc2c(c1)OCO2,> 100 µM,> 100 µM,> 100 µM,> 100 µM,> 100 µM,> 100 µM,> 100 µM,> 100 µM,> 100 µM,> 100 µM,> 100 µM
FC(F)(F)c1ccc2c(c1)nc(Cc1ccc(Cl)cc1)n2CC1CCCN2CCCCC12 (stereo not given),24.4 µM,26.4 µM,14 µM,18 µM,22.3 µM,7.13 µM,10.1 µM,21.8 µM,16.9 µM,15.2 µM,20.7 µM
Cc1ccc(Nc2nc3ccccc3nc2NS(=O)(=O)c2ccc(N)cc2)cc1,> 100 µM,81.9 µM,> 100 µM,> 100 µM,> 100 µM,> 100 µM,> 100 µM,> 100 µM,> 100 µM,> 100 µM,> 100 µM
Cc1nnc(NS(=O)(=O)c2ccc(N=Nc3c(O)c(C(=O)O)cc4ccccc34)cc2)s1,> 100 µM,> 100 µM,> 100 µM,> 100 µM,> 100 µM,> 100 µM,> 100 µM,> 100 µM,> 100 µM,> 100 µM,> 100 µM
